Data on 10 compounds can be found in US12583852B2, “Heterocycle derivative” (JW PHARMACEUTICAL CORPORATION, priority 2018, dated 2026).

The subject of the experiment is human dermal papilla cells. The experiment is described as follows: Promotion of proliferation of human dermal papilla cells (CellTiter-Glo Luminescent cell viability assay). In kind it is cell-based. Conditions: human dermal papilla cells (ScienCell, 2499); drug 0 to 30 μM; 48 hours; CellTiter-Glo luminescence; compared to DMSO-treated control group. On the procedure: The effect of promoting cell proliferation by the drug was analyzed using human dermal papilla cells (ScienCell, 2499). Human dermal papilla cells cultured using Mesenchymal Stem Cell Medium (ScienCell, 7501) medium were seeded at a density of 3×10^3 cells/well and in a volume of 100 μl in a 96-well plate, incubated overnight at 37° C. and 5% CO2, treated with the drug at different concentrations ranging from 0 to 30 μM in a volume of 100 μL, and incubated at 37° C. and 5% CO2 for 48 hours. CellTiter-Glo Luminescent cell viability assay was performed according to the manufacturer's protocol (Promega, G7573) to detect cell proliferation. Luminescence was measured using an Envision 2102 multilabeled reader (PerkinElmer) equipment, and the cell proliferation rate was analyzed by the activity of the drug-treated group compared to the DMSO-treated group (control group), which is a solvent of the drug.

On to `Fc1cc2cn[nH]c2nc1Nc1cccc2c1CCC2` [Compound 104, N-(2,3-dihydro-1H-inden-4-yl)-5-fluoro-1H-pyrazolo[3,4-b]pyridin-6-amine], for which the “Maximum DP cell proliferation (%)” value is on record as 15%.

On to `CN(C)c1n[nH]c2nc(Nc3cccc4c3CCC4)c(F)cc12` [Example 105, N6-(2,3-dihydro-1H-inden-4-yl)-5-fluoro-N3,N3-dimethyl-1H-pyrazolo[3,4-b]pyridine-3,6-diamine], for which the “Maximum DP cell proliferation (%)” value turned out to be 12%.

With `CS(=O)(=O)Nc1n[nH]c2nc(Nc3cccc4c3CCC4)c(F)cc12` [Example 106, N-(6-((2,3-dihydro-1H-inden-4-yl)amino)-5-fluoro-1H-pyrazolo[3,4-b]pyridin-3-yl)methanesulfonamide], the “Maximum DP cell proliferation (%)” value is recorded as 4.8%.

As to `Fc1cc2c(-c3ccccc3)n[nH]c2nc1Nc1cccc2c1CCC2` [Example 109, 5-fluoro-N-indan-4-yl-3-phenyl-1H-pyrazolo[3,4-b]pyridin-6-amine], the “Maximum DP cell proliferation (%)” value came out at 3.6%.

Take `Nc1n[nH]c2nc(Nc3cccc4c3CCC4)ncc12` [Example 112, N6-(2,3-dihydro-1H-inden-4-yl)-1H-pyrazolo[3,4-d]pyrimidine-3,6-diamine]: the “Maximum DP cell proliferation (%)” value is 2%.

For `Nc1n[nH]c2nc(Nc3cccc(C(F)F)c3F)ncc12` [Example 115, N6-(3-(difluoromethyl)-2-fluorophenyl)-1H-pyrazolo[3,4-d]pyrimidine-3,6-diamine], the “Maximum DP cell proliferation (%)” value turned out to be 3.7%.

As to `Nc1n[nH]c2nc(Nc3cccc4c3CCC4)nc(Cl)c12` [Example 116, 4-chloro-N6-indan-4-yl-3a,4-didehydro-1H-pyrazolo[3,4-d]pyrimidine-3,6-diamine], the “Maximum DP cell proliferation (%)” value is 5.9%.

Take `Nc1n[nH]c2nc(Nc3cccc(C(F)(F)F)c3F)ncc12` [Example 117, N6-[2-fluoro-3-(trifluoromethyl)phenyl]-1H-pyrazolo[3,4-d]pyrimidine-3,6-diamine]: the “Maximum DP cell proliferation (%)” value amounted to 6.7%.

As for `Fc1cc2c(Br)n[nH]c2nc1Nc1c(Br)cc(Br)c2c1CCC2` [Example 119, 3-bromo-N-(5,7-dibromoindan-4-yl)-5-fluoro-1H-pyrazolo[3,4-b]pyridin-6-amine], the “Maximum DP cell proliferation (%)” value was 1.3%.

Regarding `O/N=N\c1n[nH]c2nc(Nc3cccc4c3CCC4)c(F)cc12` [Example 122, (Z)-N-(2,3-dihydro-1H-inden-4-yl)-5-fluoro-3-(hydroxydiazenyl)-1H-pyrazolo[3,4-b]pyridin-6-amine], the “Maximum DP cell proliferation (%)” value is reported as 5.3%.
